Where “and” joins values, the source holds several entries; their conditions need not be identical. Identical values can stand only once. Toxic doses and inconclusive results are not listed. Rule for the calls: active = survival T/C of 150% or more; inactive = T/C below 125% in these data.
System: BDF1 mice, B16 melanoma ip, median survival T/C
Experiment: NCI In Vivo Anticancer Drug Screen. Data for tumor model B16 Melanoma (intraperitoneal) in B6D2F1 (BDF1) mice
Conditions: endpoint: median survival time, higher = longer survival
Summary of the method: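 Vehicle-treated animals serve as the reference (C); treated animals (T) are scored for survival or tumor size after tumor transplantation.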

[1] = dose: 25.0 mg/kg/injection, schedule: Q01DX009 (ip), vehicle: saline
[2] = dose: 50.0 mg/kg/injection, schedule: Q01DX009 (ip), vehicle: saline
[3] = dose: 50.0 mg/kg/injection, schedule: Q01DX009 (ip), vehicle: Klucel (hydroxypropylcellulose) (HPC)
[4] = dose: 100.0 mg/kg/injection, schedule: Q01DX009 (ip), vehicle: Klucel (hydroxypropylcellulose) (HPC)
[5] = dose: 200.0 mg/kg/injection, schedule: Q01DX009 (ip), vehicle: Klucel (hydroxypropylcellulose) (HPC)
[6] = dose: 12.5 mg/kg/injection, schedule: Q01DX009 (ip), vehicle: Klucel (hydroxypropylcellulose) (HPC)
[7] = dose: 25.0 mg/kg/injection, schedule: Q01DX009 (ip), vehicle: Klucel (hydroxypropylcellulose) (HPC)
[8] = dose: 50.0 mg/kg/injection, schedule: Q01DX009 (ip), vehicle: saline with Tween-80
[9] = dose: 100.0 mg/kg/injection, schedule: Q01DX009 (ip), vehicle: saline with Tween-80
[10] = dose: 200.0 mg/kg/injection, schedule: Q01DX009 (ip), vehicle: saline with Tween-80
[11] = dose: 6.25 mg/kg/injection, schedule: Q01DX009 (ip), vehicle: saline with Tween-80
[12] = dose: 50.0 mg/kg/injection, schedule: Q04DX003 (ip), vehicle: Klucel (hydroxypropylcellulose) (HPC)
[13] = dose: 100.0 mg/kg/injection, schedule: Q04DX003 (ip), vehicle: Klucel (hydroxypropylcellulose) (HPC)
[14] = dose: 200.0 mg/kg/injection, schedule: Q04DX003 (ip), vehicle: Klucel (hydroxypropylcellulose) (HPC)
[15] = dose: 25.0 mg/kg/injection, schedule: Q01DX009 (ip), vehicle: saline with Tween-80
[16] = dose: 100.0 mg/kg/injection, schedule: Q01DX009 (ip), vehicle: saline
[17] = dose: 200.0 mg/kg/injection, schedule: Q01DX009 (ip), vehicle: saline

Measured: T/C

O=C(Nc1ccccc1C(F)(F)F)c1cccc(C(=O)Nc2ccccc2C(F)(F)F)c1
inactive: dose: 100.0 mg/kg/injection, schedule: Q04DX003 (ip), vehicle: carboxymethylcellulose (CMC) 100 % of control | dose: 200.0 mg/kg/injection, schedule: Q04DX003 (ip), vehicle: carboxymethylcellulose (CMC) 91 % of control

O=C(NO)N/N=C/c1ccccc1
inactive: dose: 100.0 mg/kg/injection, schedule: Q04DX003 (ip), vehicle: saline with Tween-80 106 % of control | dose: 200.0 mg/kg/injection, schedule: Q04DX003 (ip), vehicle: saline with Tween-80 104 % of control | dose: 400.0 mg/kg/injection, schedule: Q04DX003 (ip), vehicle: saline with Tween-80 90 % of control

COc1ccccc1N1C(N)=NC(N)=NC1(C)C
inactive: [1] 102 % of control | [2] 108 % of control

CC1CCN(c2ccc([N+](=O)[O-])cc2[N+](=O)[O-])CC1
inactive: [3] 100 % of control | [4] 100 % of control | [5] 112 % of control

CN(C)N=Nc1cn[nH]c1C(N)=O
inactive: [6] 110 % of control | [7] 111 % of control | [3] 100 % of control | [4] 98 % of control | [5] 96 % of control

CSc1ncc(C#N)c(N)n1
inactive: [8] 107 % of control | [9] 99 % of control | [10] 97 % of control

O=c1[nH]c(-c2ccccc2)c(-c2ccccc2)[nH]1
inactive: [9] 90 % of control | [10] 95 % of control

C=CCOP(=O)(N1CC1C)N1CC1C (stereo not given)
inactive: [1] 95 % of control | [2] 96 % of control | dose: 50.0 mg/kg/injection, schedule: Q04DX003 (ip), vehicle: saline 97 % of control | dose: 100.0 mg/kg/injection, schedule: Q04DX003 (ip), vehicle: saline 105 % of control

O=[N+]([O-])c1ccc(/C=N/c2ncc(Br)s2)o1
inactive: [11] 95 % of control | dose: 12.5 mg/kg/injection, schedule: Q01DX009 (ip), vehicle: saline with Tween-80 93 % of control

COc1ccccc1NC(=O)Nc1ccccc1
inactive: [4] 104 % of control | [5] 103 % of control | dose: 400.0 mg/kg/injection, schedule: Q01DX009 (ip), vehicle: Klucel (hydroxypropylcellulose) (HPC) 109 % of control

[Cl][Pt+2][Cl].[NH-]C1CCCC1.[NH-]C1CCCC1
inactive: dose: 2.5 mg/kg/injection, schedule: Q01DX009 (ip), vehicle: Klucel (hydroxypropylcellulose) (HPC) 107 % of control | dose: 5.0 mg/kg/injection, schedule: Q01DX009 (ip), vehicle: Klucel (hydroxypropylcellulose) (HPC) 117 % of control | dose: 10.0 mg/kg/injection, schedule: Q01DX009 (ip), vehicle: Klucel (hydroxypropylcellulose) (HPC) 112 % of control | dose: 10.0 mg/kg/injection, schedule: Q01DX009 (ip), vehicle: olive oil, sesame oil, peanut oil 104 % of control | dose: 10.0 mg/kg/injection, schedule: Q01DX009 (ip), vehicle: saline with Tween-80 109 % of control | dose: 10.0 mg/kg/injection, schedule: Q01DX009 (ip), vehicle: saline 110 % of control | dose: 20.0 mg/kg/injection, schedule: Q01DX009 (ip), vehicle: saline with Tween-80 117 % of control | dose: 20.0 mg/kg/injection, schedule: Q01DX009 (ip), vehicle: saline 124 % of control | dose: 40.0 mg/kg/injection, schedule: Q01DX009 (ip), vehicle: saline with Tween-80 117 % of control | dose: 40.0 mg/kg/injection, schedule: Q04DX003 (ip), vehicle: Klucel (hydroxypropylcellulose) (HPC) 108 % of control | dose: 40.0 mg/kg/injection, schedule: Q04DX003 (ip), vehicle: saline 122 % of control | dose: 80.0 mg/kg/injection, schedule: Q01DX001 (ip), vehicle: Klucel (hydroxypropylcellulose) (HPC) 105 % of control | dose: 80.0 mg/kg/injection, schedule: Q01DX001 (ip), vehicle: saline 117 % of control | dose: 80.0 mg/kg/injection, schedule: Q01DX009 (ip), vehicle: Klucel (hydroxypropylcellulose) (HPC) 115 % of control | dose: 80.0 mg/kg/injection, schedule: Q01DX009 (ip), vehicle: saline with Tween-80 109 % of control | dose: 80.0 mg/kg/injection, schedule: Q04DX003 (ip), vehicle: Klucel (hydroxypropylcellulose) (HPC) 105 % of control | dose: 160.0 mg/kg/injection, schedule: Q01DX001 (ip), vehicle: Klucel (hydroxypropylcellulose) (HPC) 117 % of control | dose: 160.0 mg/kg/injection, schedule: Q01DX009 (ip), vehicle: saline 94 % of control | dose: 160.0 mg/kg/injection, schedule: Q04DX003 (ip), vehicle: Klucel (hydroxypropylcellulose) (HPC) 105 % of control | dose: 320.0 mg/kg/injection, schedule: Q01DX001 (ip), vehicle: Klucel (hydroxypropylcellulose) (HPC) 123 % of control | dose: 320.0 mg/kg/injection, schedule: Q04DX003 (ip), vehicle: Klucel (hydroxypropylcellulose) (HPC) 114 % of control | dose: 640.0 mg/kg/injection, schedule: Q04DX003 (ip), vehicle: saline 105 % of control

Cc1ccc(NC(=S)NC(Cc2ccccc2)c2ccccc2)cc1 (stereo not given)
inactive: [6] 102 % of control | [7] 100 % of control | dose: 37.5 mg/kg/injection, schedule: Q04DX003 (ip), vehicle: Klucel (hydroxypropylcellulose) (HPC) 100 % of control | [3] 100 % of control | dose: 75.0 mg/kg/injection, schedule: Q04DX003 (ip), vehicle: Klucel (hydroxypropylcellulose) (HPC) 92 % of control | dose: 150.0 mg/kg/injection, schedule: Q04DX003 (ip), vehicle: Klucel (hydroxypropylcellulose) (HPC) 100 % of control

Nc1nc(-c2ccccc2N=NN2CCCCC2)nc2ccccc12
inactive: [12] 97 % of control | [13] 91 % of control | [14] 113 % of control

O=C1c2cccc3cc([N+](=O)[O-])cc(c23)C(=O)N1CCN1CCCC1
inactive: dose: 1.56 mg/kg/injection, schedule: Q01DX009 (ip), vehicle: saline with Tween-80 109 % of control | dose: 3.12 mg/kg/injection, schedule: Q01DX009 (ip), vehicle: saline with Tween-80 110 % of control and 111 % of control | [11] 91 % of control and 118 % of control | [15] 110 % of control

CSCCC(NC(C)=O)C(=O)NNC(C)C (stereo not given)
inactive: [1] 105 % of control | [2] 88 % of control | [16] 123 % of control | [17] 88 % of control | dose: 400.0 mg/kg/injection, schedule: Q01DX009 (ip), vehicle: saline 97 % of control

BrC1(Br)CC1(c1ccccc1)c1ccccc1
inactive: [12] 111 % of control | [13] 105 % of control | [14] 102 % of control

CCOC(=O)CC(SP(=S)(OC)OC)C(=O)OCC (stereo not given)
inactive: [15] 94 % of control and 107 % of control | [1] 106 % of control | [8] 96 % of control and 97 % of control | [2] 95 % of control | [9] 91 % of control and 98 % of control | [16] 101 % of control | [10] 88 % of control and 96 % of control | [17] 101 % of control

CCCCCCCCCC(O)CCC (stereo not given)
inactive: [7] 103 % of control | [3] 99 % of control | [4] 92 % of control

COc1cccc2c1C(=O)c1c(O)c3c(c(O)c1C2=O)C[C@@](O)(C(=O)CO)C[C@@H]3OC1CC([N+](C)(C)C)C(O)C(C)O1 (stereo not given in full)
inactive: dose: 4.32 mg/kg/injection, schedule: Q04DX003 (ip), vehicle: water 108 % of control and 110 % of control | dose: 6.48 mg/kg/injection, schedule: Q01DX001 (ip), vehicle: water 107 % of control and 119 % of control | dose: 7.2 mg/kg/injection, schedule: Q04DX003 (ip), vehicle: water 116 % of control and 119 % of control | dose: 10.8 mg/kg/injection, schedule: Q01DX001 (ip), vehicle: water 103 % of control and 123 % of control | dose: 12.0 mg/kg/injection, schedule: Q04DX003 (ip), vehicle: water 108 % of control and 112 % of control | dose: 18.0 mg/kg/injection, schedule: Q01DX001 (ip), vehicle: water 105 % of control | dose: 20.0 mg/kg/injection, schedule: Q04DX003 (ip), vehicle: water 107 % of control | dose: 30.0 mg/kg/injection, schedule: Q01DX001 (ip), vehicle: water 102 % of control and 113 % of control

CNc1n[n+](-c2ccccc2)no1
inactive: dose: 12.5 mg/kg/injection, schedule: Q01DX009 (ip), vehicle: saline 119 % of control | [1] 124 % of control

S=C(NNc1ccccc1)Nc1ccccc1
inactive: [7] 97 % of control | [3] 106 % of control

Reference: PubChem BioAssay AID192 (DTP/NCI, 2004)
